Test results from ChEMBL document CHEMBL1201862, “PubChem BioAssay data set” (2004).
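Method: 48-hour compound exposure of cells in 96-well plates, five concentrations, linear interpolation of endpoints. Here, GI50 denotes the concentration required for 50% inhibition of growth.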 Active and inactive are the calls of the source. No stated cut-off is given here; in the data, active = GI50 up to about 1.1 µM and inactive = higher.

Tests used:
Assay in all cases: NCI tumour cell line growth inhibition, 48 h
786-0 = test system: 786-0
A498 = test system: A498
A549 = test system: A549
ACHN = test system: ACHN
CAKI-1 = test system: CAKI-1
CCRF-CEM = test system: CCRF-CEM
COLO 205 = test system: COLO 205
DLD-1 = test system: DLD-1
DMS-114 = test system: DMS-114
DMS-273 = test system: DMS-273
EKVX = test system: EKVX
HCC 2998 = test system: HCC 2998
HCT-116 = test system: HCT-116
HCT-15 = test system: HCT-15
HL-60 = test system: HL-60
HOP-18 = test system: HOP-18
HOP-62 = test system: HOP-62
HOP-92 = test system: HOP-92
HT-29 = test system: HT-29
IGROV-1 = test system: IGROV-1
K562 = test system: K562
KM-20L2 = test system: KM-20L2
LOX IMVI = test system: LOX IMVI
LXFL 529 = test system: LXFL 529
M14 = test system: M14
M19-MEL = test system: M19-MEL
MOLT-4 = test system: MOLT-4
Malme-3M = test system: Malme-3M
NCI-H226 = test system: NCI-H226
NCI-H23 = test system: NCI-H23
NCI-H522 = test system: NCI-H522
OVCAR-3 = test system: OVCAR-3
OVCAR-4 = test system: OVCAR-4
OVCAR-5 = test system: OVCAR-5
OVCAR-8 = test system: OVCAR-8
RPMI-8226 = test system: RPMI-8226
RXF 393 = test system: RXF 393
SF-268 = test system: SF-268
SF-295 = test system: SF-295
SF-539 = test system: SF-539
SK-MEL-28 = test system: SK-MEL-28
SK-MEL-2 = test system: SK-MEL-2
SK-MEL-5 = test system: SK-MEL-5
SK-OV-3 = test system: SK-OV-3
SN12C = test system: SN12C
SNB-19 = test system: SNB-19
SNB-75 = test system: SNB-75
SNB-78 = test system: SNB-78
SW-620 = test system: SW-620
TK-10 = test system: TK-10
U-251 = test system: U-251
UACC-257 = test system: UACC-257
UACC-62 = test system: UACC-62
UO-31 = test system: UO-31
KM12 = test system: KM12
NCI-H460 = test system: NCI-H460
SR = test system: SR

## NC(=S)N/N=C1\C(=O)N(c2cccc([N+](=O)[O-])c2)C(=O)C1C(=O)Nc1cccc([N+](=O)[O-])c1 (centres undefined)
786-0
  GI50: > 100 µM (inactive)
A498
  GI50: > 100 µM (inactive)
A549
  GI50: > 100 µM (inactive)
ACHN
  GI50: > 100 µM (inactive)
CAKI-1
  GI50: > 100 µM (inactive)
CCRF-CEM
  GI50: > 100 µM (inactive)
COLO 205
  GI50: > 100 µM (inactive)
DLD-1
  GI50: > 100 µM (inactive)
DMS-114
  GI50: > 100 µM (inactive)
DMS-273
  GI50: > 100 µM (inactive)
EKVX
  GI50: > 100 µM (inactive)
HCC 2998
  GI50: > 100 µM (inactive)
HCT-116
  GI50: > 100 µM (inactive)
HCT-15
  GI50: > 100 µM
HL-60
  GI50: 38.4 µM (inactive)
HOP-18
  GI50: 65.3 µM (inactive)
HOP-62
  GI50: > 100 µM (inactive)
HOP-92
  GI50: > 100 µM (inactive)
HT-29
  GI50: > 100 µM (inactive)
IGROV-1
  GI50: > 100 µM (inactive)
K562
  GI50: > 100 µM (inactive)
KM-20L2
  GI50: > 100 µM (inactive)
LOX IMVI
  GI50: > 100 µM (inactive)
LXFL 529
  GI50: > 100 µM (inactive)
M14
  GI50: > 100 µM (inactive)
M19-MEL
  GI50: > 100 µM (inactive)
MOLT-4
  GI50: > 100 µM (inactive)
Malme-3M
  GI50: > 100 µM (inactive)
NCI-H226
  GI50: > 100 µM (inactive)
NCI-H23
  GI50: > 100 µM (inactive)
NCI-H522
  GI50: > 100 µM (inactive)
OVCAR-3
  GI50: > 100 µM (inactive)
OVCAR-4
  GI50: > 100 µM (inactive)
OVCAR-5
  GI50: > 100 µM (inactive)
OVCAR-8
  GI50: > 100 µM (inactive)
RPMI-8226
  GI50: > 100 µM (inactive)
RXF 393
  GI50: > 100 µM (inactive)
SF-268
  GI50: > 100 µM (inactive)
SF-295
  GI50: > 100 µM (inactive)
SF-539
  GI50: > 100 µM (inactive)
SK-MEL-28
  GI50: > 100 µM (inactive)
SK-MEL-2
  GI50: > 100 µM (inactive)
SK-MEL-5
  GI50: > 100 µM (inactive)
SK-OV-3
  GI50: > 100 µM (inactive)
SN12C
  GI50: > 100 µM (inactive)
SNB-19
  GI50: > 100 µM (inactive)
SNB-75
  GI50: > 100 µM (inactive)
SNB-78
  GI50: > 100 µM (inactive)
SW-620
  GI50: > 100 µM (inactive)
TK-10
  GI50: > 100 µM (inactive)
U-251
  GI50: > 100 µM (inactive)
UACC-257
  GI50: > 100 µM (inactive)
UACC-62
  GI50: > 100 µM (inactive)
UO-31
  GI50: > 100 µM (inactive)

## O=C(N/N=C(/CCN1CCCC1)CC(c1ccccc1)c1c(O)c2ccccc2oc1=O)c1ccncc1 (centres undefined)
786-0
  GI50: > 100 µM (inactive)
A498
  GI50: > 100 µM (inactive)
A549
  GI50: > 100 µM (inactive)
ACHN
  GI50: > 100 µM (inactive)
CAKI-1
  GI50: > 100 µM (inactive)
CCRF-CEM
  GI50: 50.8 µM (inactive)
DLD-1
  GI50: > 100 µM (inactive)
EKVX
  GI50: > 100 µM (inactive)
HCC 2998
  GI50: 0.171 µM (active)
HCT-116
  GI50: > 100 µM (inactive)
HCT-15
  GI50: > 100 µM
HL-60
  GI50: 30 µM (inactive)
HOP-18
  GI50: > 100 µM (inactive)
HOP-62
  GI50: > 100 µM (inactive)
HOP-92
  GI50: 35 µM (inactive)
HT-29
  GI50: > 100 µM (inactive)
IGROV-1
  GI50: > 100 µM (inactive)
K562
  GI50: 87.1 µM (inactive)
KM-20L2
  GI50: > 100 µM (inactive)
KM12
  GI50: > 100 µM (inactive)
LOX IMVI
  GI50: > 100 µM (inactive)
LXFL 529
  GI50: > 100 µM (inactive)
M14
  GI50: 94.6 µM (inactive)
M19-MEL
  GI50: 95.1 µM (inactive)
Malme-3M
  GI50: 93.3 µM (inactive)
NCI-H226
  GI50: > 100 µM (inactive)
NCI-H23
  GI50: > 100 µM (inactive)
NCI-H460
  GI50: > 100 µM (inactive)
NCI-H522
  GI50: 72.6 µM (inactive)
OVCAR-3
  GI50: > 100 µM (inactive)
OVCAR-4
  GI50: > 100 µM (inactive)
OVCAR-5
  GI50: > 100 µM (inactive)
OVCAR-8
  GI50: > 100 µM (inactive)
RPMI-8226
  GI50: 45.1 µM (inactive)
RXF 393
  GI50: > 100 µM (inactive)
SF-268
  GI50: > 100 µM (inactive)
SF-295
  GI50: > 100 µM (inactive)
SF-539
  GI50: > 100 µM (inactive)
SK-MEL-2
  GI50: > 100 µM (inactive)
SK-MEL-5
  GI50: > 100 µM (inactive)
SK-OV-3
  GI50: > 100 µM (inactive)
SN12C
  GI50: > 100 µM (inactive)
SNB-19
  GI50: > 100 µM (inactive)
SNB-75
  GI50: > 100 µM (inactive)
SNB-78
  GI50: > 100 µM (inactive)
SR
  GI50: 15.4 µM (inactive)
SW-620
  GI50: 41.2 µM (inactive)
TK-10
  GI50: > 100 µM (inactive)
U-251
  GI50: > 100 µM (inactive)
UACC-257
  GI50: > 100 µM (inactive)
UACC-62
  GI50: > 100 µM (inactive)
UO-31
  GI50: > 100 µM (inactive)

## Cc1cccc(C)c1NC(=O)CCc1n[nH]c(=S)o1
786-0
  GI50: 71.9 µM (inactive)
A498
  GI50: > 100 µM (inactive)
A549
  GI50: 88.5 µM (inactive)
ACHN
  GI50: > 100 µM (inactive)
CAKI-1
  GI50: > 100 µM (inactive)
CCRF-CEM
  GI50: > 100 µM (inactive)
COLO 205
  GI50: 30.8 µM (inactive)
DLD-1
  GI50: 67.9 µM (inactive)
DMS-114
  GI50: 39.1 µM (inactive)
DMS-273
  GI50: 44.7 µM (inactive)
EKVX
  GI50: > 100 µM (inactive)
HCC 2998
  GI50: > 100 µM (inactive)
HCT-116
  GI50: 20.4 µM (inactive)
HCT-15
  GI50: 78.5 µM
HL-60
  GI50: > 100 µM (inactive)
HOP-18
  GI50: > 100 µM (inactive)
HOP-62
  GI50: > 100 µM (inactive)
HOP-92
  GI50: > 100 µM (inactive)
HT-29
  GI50: > 100 µM (inactive)
IGROV-1
  GI50: > 100 µM (inactive)
K562
  GI50: 36.2 µM (inactive)
KM-20L2
  GI50: > 100 µM (inactive)
KM12
  GI50: > 100 µM (inactive)
LXFL 529
  GI50: > 100 µM (inactive)
M14
  GI50: > 100 µM (inactive)
M19-MEL
  GI50: > 100 µM (inactive)
MOLT-4
  GI50: > 100 µM (inactive)
Malme-3M
  GI50: > 100 µM (inactive)
NCI-H226
  GI50: > 100 µM (inactive)
NCI-H23
  GI50: > 100 µM (inactive)
NCI-H460
  GI50: > 100 µM (inactive)
NCI-H522
  GI50: > 100 µM (inactive)
OVCAR-3
  GI50: > 100 µM (inactive)
OVCAR-4
  GI50: > 100 µM (inactive)
OVCAR-5
  GI50: > 100 µM (inactive)
OVCAR-8
  GI50: > 100 µM (inactive)
RPMI-8226
  GI50: 22.2 µM (inactive)
SF-268
  GI50: > 100 µM (inactive)
SF-295
  GI50: > 100 µM (inactive)
SF-539
  GI50: > 100 µM (inactive)
SK-MEL-28
  GI50: > 100 µM (inactive)
SK-MEL-5
  GI50: > 100 µM (inactive)
SK-OV-3
  GI50: > 100 µM (inactive)
SN12C
  GI50: > 100 µM (inactive)
SNB-19
  GI50: > 100 µM (inactive)
SNB-75
  GI50: > 100 µM (inactive)
SNB-78
  GI50: > 100 µM (inactive)
SW-620
  GI50: 18.1 µM (inactive)
TK-10
  GI50: > 100 µM (inactive)
U-251
  GI50: > 100 µM (inactive)
UACC-257
  GI50: > 100 µM (inactive)
UACC-62
  GI50: > 100 µM (inactive)
UO-31
  GI50: > 100 µM (inactive)
